“Also recorded” adds a separate entry of the source.
Legend:
ΔF508-CFTR [1] = assay: Ussing chamber chloride efflux; format: cell-based, human
CAL PDZ domain (CALP) = assay: NMR HSQC binding-site mapping on 15N-CALP; conditions: 15N-CALP HSQC
ΔF508-CFTR [2] = format: cell-based, human; conditions: surface biotinylation and Western blotting; p = 0.35, n = 14
ΔF508-CFTR [3] = assay: Ussing chamber chloride efflux, residual ΔISC after CHX; format: cell-based, human
CFBE-ΔF cells = assay: peptide uptake by fluorescence microscopy; conditions: BioPORTER delivery, fluorescence microscopy (Figure S1)

AALKEETEEEVQDTRL [CFTR16] was tested, and the “increase in ΔISC” value (ΔF508-CFTR [1]; absence of CHX, relative to the scrambled control (Figure 5)) was “did not significantly increase”.

With ANSRWPTSII [iCAL36] the “effect on ΔF508-CFTR biogenesis/maturation” value (ΔF508-CFTR [1]; comparison of ΔISC increase in absence (26%) and presence (25%) of CHX) was “does not strongly affect biogenesis”, the “mode of binding / binding site on CALP” value (CAL PDZ domain (CALP); 800 μM iCAL36, normalized chemical shift perturbation Δ ≥ 0.15) was “competitive inhibitor” and the “additional contacts compared to CFTR8” value (CAL PDZ domain (CALP); compared to the CFTR8 octamer, listed as iCAL36_10) was “extends beyond that of CFTR8; also recorded: makes additional contacts at the distal end of the peptide-binding groove”.

For F*-ANSRWPTSII [F*-iCAL36], the “increase in apical ΔF508-CFTR (significance, words)” value (ΔF508-CFTR [2]) was “not statistically significant”, the “residual ΔISC increase vs control monolayers” value (ΔF508-CFTR [3]; CHX 2 h, relative to control (F*-SCR) monolayers, p = 0.0005) was 25% and the “peptide uptake” value (CFBE-ΔF cells) was “confirmed”.

For “F*-SPTINSAIWR [F*-SCR, reference compound]”, the “shift in chloride efflux (ΔISC) compared to untreated cells” value (ΔF508-CFTR [1]; CFBE-ΔF polarized monolayers, 37 °C, peptide/BioPORTER (500 μM), compared to untreated cells) was at most 4%, the “residual ΔISC, % of baseline” value (ΔF508-CFTR [3]; 2 h CHX exposure, % of 0 h starting value, n = 9) was 60% and the “peptide uptake” value (CFBE-ΔF cells) was “confirmed”.
